Measured values reported in patent publication US7138361B2, “Herbicidal heterocycles” (E. I. du Pont de Nemours and Company, priority 2000, dated 2006).

Legend:
Type in all cases: in vivo
[1] = tested on: giant foxtail (Setaria faberii); assay: Test C preemergence; settings: for Plant response rating (0 to 100), Foxtail, Giant: Rate 250 g/ha, visual evaluation after 12 to 14 days
From the text: (§1) Seeds of plant species selected from bermudagrass (Cynodon dactylon), Surinam grass (Brachiaria decumbens), cocklebur (Xanthium strumarium), corn (Zea mays), crabgrass (Digitaria sanguinalis), woolly cupgrass (Eriochloa villosa), giant foxtail (Setaria faberii), goosegrass (Eleusine indica), johnsongrass (Sorghum halepense), kochia (Kochia scoparia), lambsquarters (Chenopodium album), morningglory (Ipomoea hederacea), yellow nutsedge (Cyperus esculentus), pigweed (Amaranthus retroflexus), common ragweed (Ambrosia elatior), soybean (Glycine max) and velvetleaf (Abutilon theophrasti) were planted and treated preemergence with test chemicals formulated in a non-phytotoxic solvent mixture which included a surfactant.
(§2) At the same time, plants selected from these crop and weed species and also winter barley (Hordeum vulgare), blackgrass (Alopecurus myosuroides), canary grass (Phalaris minor), chickweed (Stellaria media), downy brome (Bromus tectorum), green foxtail (Setaria viridis), Italian ryegrass (Lolium multiflorum), wheat (Triticum aestivum), wild oat (Avena fatua) and windgrass (Apera spica-venti) were treated with postemergence applications of some of the test chemicals formulated in the same manner. Plants ranged in height from 2 to 18 cm (1- to 4-leaf stage) for postemergence treatments. Plant species in the flooded paddy test consisted of rice (Oryza saliva), smallflower flatsedge (Cyperus difformis), duck salad (Heteranthera limosa) and barnyardgrass (Echinochloa crus-galli) grown to the 2-leaf stage for testing. Treated plants and controls were maintained in a greenhouse for 12 to 14 days, after which time all species were compared to controls and visually evaluated. Plant response ratings, summarized in Table C, are based on a scale of 0 to 100 where 0 is no effect and 100 is complete control. A dash (-) response means no test result.

[2] = tested on: bermudagrass (Cynodon dactylon); assay: Test C preemergence; settings: for Plant response rating (0 to 100 where 0 is no effect and 100 is complete control), Bermudagrass: Rate 250 g/ha, visual evaluation after 12 to 14 days
From the text: as §1, §2

[3] = tested on: pigweed (Amaranthus retroflexus); assay: Test C preemergence; settings: for Plant response rating (0 to 100), Pigweed: Rate 250 g/ha, visual evaluation after 12 to 14 days
From the text: as §1, §2

[4] = tested on: crabgrass (Digitaria sanguinalis); assay: Test C preemergence; settings: for Plant response rating (0 to 100), Crabgrass: Rate 250 g/ha, visual evaluation after 12 to 14 days
From the text: as §1, §2

[5] = tested on: Surinam grass (Brachiaria decumbens); assay: Test C preemergence; settings: for Plant response rating (0 to 100), Surinam grass: Rate 250 g/ha, visual evaluation after 12 to 14 days
From the text: as §1, §2

soybean (Glycine max) = assay: Test C preemergence; settings: for Plant response rating (0 to 100), Soybean: Rate 250 g/ha, visual evaluation after 12 to 14 days
From the text: as §1, §2

[6] = tested on: cocklebur (Xanthium strumarium); assay: Test C preemergence; settings: for Plant response rating (0 to 100), Cocklebur: Rate 250 g/ha, visual evaluation after 12 to 14 days
From the text: as §1, §2

[7] = tested on: woolly cupgrass (Eriochloa villosa); assay: Test C preemergence; settings: for Plant response rating (0 to 100), Cupgrass, Woolly: Rate 250 g/ha, visual evaluation after 12 to 14 days
From the text: as §1, §2

kochia (Kochia scoparia) = assay: Test C preemergence; settings: for Plant response rating (0 to 100), Kochia: Rate 250 g/ha, visual evaluation after 12 to 14 days
From the text: as §1, §2

Sunflower = assay: Test C preemergence; settings: Rate 125 g/ha, scale 0 to 100, 0 no effect, 100 complete control
Nightshade = assay: Test C preemergence; settings: Rate 250 g/ha, visual evaluation after 12 to 14 days
[8] = tested on: giant foxtail (Setaria faberii); assay: Test B preemergence; settings: scale 0 to 100, 0 no effect, 100 complete control
Method in brief: (§3)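 Greenhouse test: chemicals are formulated in a surfactant-containing non-phytotoxic solvent and applied either preemergence to planted seeds or postemergence to plants 2 to 18 cm tall. Response is rated visually versus controls after 13 to 15 days, 0 meaning no effect and 100 complete control.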

[9] = tested on: pigweed (Amaranthus retroflexus); assay: Test B preemergence; settings: Preemergence, Rate 500 g/ha; scale 0 to 100, 0 no effect, 100 complete control
Method in brief: as §3

corn (Zea mays) = assay: Test B preemergence; settings: scale 0 to 100, 0 no effect, 100 complete control
Method in brief: as §3

[10] = tested on: crabgrass (Digitaria sanguinalis); assay: Test B preemergence; settings: scale 0 to 100, 0 no effect, 100 complete control
Method in brief: as §3

rice (Oryza saliva) = assay: Test B preemergence; settings: Preemergence, Rate 500 g/ha; scale 0 to 100, 0 no effect, 100 complete control
Method in brief: as §3

[11] = tested on: Surinam grass (Brachiaria decumbens); assay: Test B preemergence; settings: scale 0 to 100, 0 no effect, 100 complete control
Method in brief: as §3

[12] = tested on: barnyardgrass (Echinochloa crus-galli); assay: Test B preemergence; settings: scale 0 to 100, 0 no effect, 100 complete control
Method in brief: as §3

[13] = tested on: cocklebur (Xanthium strumarium); assay: Test B preemergence; settings: scale 0 to 100, 0 no effect, 100 complete control
Method in brief: as §3

[14] = tested on: velvetleaf (Abutilon theophrasti); assay: Test B preemergence; settings: Preemergence, Rate 500 g/ha; scale 0 to 100, 0 no effect, 100 complete control
Method in brief: as §3

[15] = tested on: morning glory (Ipomoea hederacea); assay: Test B preemergence; settings: Preemergence, Rate 500 g/ha; scale 0 to 100, 0 no effect, 100 complete control
Method in brief: as §3

[16] = tested on: lambsquarters (Chenopodium album); assay: Test B preemergence; settings: scale 0 to 100, 0 no effect, 100 complete control
Method in brief: as §3

[17] = Rate 62 g/ha, scale 0 to 100, 0 no effect, 100 complete control
[18] = preemergence, Rate 31 g/ha, scale 0 to 100
[19] = preemergence, Rate 125 g/ha, scale 0 to 100, 0 no effect, 100 complete control
[20] = Preemergence, Rate 500 g/ha, scale 0 to 100

O=C1C(n2ccc(C3CC3)n2)OCN1c1cccc(C(F)(F)F)c1 (centres unmarked) [Compound 28]
Plant response rating, Foxtail, Giant [1, 17]: 0 | Plant response rating, Foxtail, Giant [1, 18]: 0 | Plant response rating (0 to 100), Foxtail, Giant ([1]; preemergence): 0 | Plant response rating, Foxtail, Giant [1, 19]: 100 | Plant response rating, Bermudagrass [2, 17]: 50 | Plant response rating, Bermudagrass [2, 18]: 20 | Plant response rating (0 to 100 where 0 is no effect and 100 is complete control), Bermudagrass ([2]; preemergence): 100 | Plant response rating, Bermudagrass [2, 19]: 100 | Plant response rating, Pigweed [3, 17]: 70 | Plant response rating, Pigweed [3, 18]: 70 | Plant response rating (0 to 100), Pigweed ([3]; preemergence): 50 | Plant response rating, Pigweed [3, 19]: 100 | Plant response rating, Crabgrass [4, 17]: 90 | Plant response rating, Crabgrass [4, 18]: 90 | Plant response rating (0 to 100), Crabgrass ([4]; preemergence): 100 | Plant response rating, Crabgrass [4, 19]: 100 | Plant response rating, Surinam grass [5, 17]: 20 | Plant response rating, Surinam grass [5, 18]: 20 | Plant response rating (0 to 100), Surinam grass ([5]; preemergence): 60 | Plant response rating, Surinam grass [5, 19]: 60 | Plant response rating, Soybean (soybean (Glycine max); [17]): 0 | Plant response rating, Soybean (soybean (Glycine max); [18]): 0 | Plant response rating (0 to 100), Soybean (soybean (Glycine max); preemergence): 40 | Plant response rating, Soybean (soybean (Glycine max); [19]): 40 | Plant response rating, Cocklebur [6, 18]: 0 | Plant response rating (0 to 100), Cocklebur ([6]; preemergence): 0 | Plant response rating, Cocklebur [6, 19]: 0 | Plant response rating, Cupgrass, Woolly [7, 17]: 50 | Plant response rating, Cupgrass, Woolly [7, 18]: 30 | Plant response rating (0 to 100), Cupgrass, Woolly ([7]; preemergence): 100 | Plant response rating, Cupgrass, Woolly [7, 19]: 70 | Plant response rating, Kochia (kochia (Kochia scoparia); [17]): 40 | Plant response rating, Kochia (kochia (Kochia scoparia); [18]): 0 | Plant response rating (0 to 100), Kochia (kochia (Kochia scoparia); preemergence): 100 | Plant response rating, Kochia (kochia (Kochia scoparia); [19]): 100 | Plant response rating, Sunflower (Sunflower): 40 | Plant response rating (0 to 100), Nightshade (Nightshade): 90 | Plant response rating, Foxtail, Giant ([8]; Preemergence, Rate 500 g/ha): 100 | Plant response rating, Foxtail, Giant ([8]; preemergence, Rate 125 g/ha): 20 | Plant response rating, Pigweed [9]: 100 | Plant response rating, Corn (corn (Zea mays); Preemergence, Rate 500 g/ha): 0 | Plant response rating, Corn (corn (Zea mays); preemergence, Rate 125 g/ha): 0 | Plant response rating, Crabgrass ([10]; Preemergence, Rate 500 g/ha): 100 | Plant response rating, Crabgrass ([10]; preemergence, Rate 125 g/ha): 20 | Plant response rating, Rice (rice (Oryza saliva)): 40 | Plant response rating, Surinam grass ([11]; Preemergence, Rate 500 g/ha): 70 | Plant response rating, Surinam grass ([11]; preemergence, Rate 125 g/ha): 0 | Plant response rating, Barnyardgrass ([12]; Preemergence, Rate 500 g/ha): 100 | Plant response rating, Barnyardgrass ([12]; preemergence, Rate 125 g/ha): 50 | Plant response rating, Cocklebur ([13]; Preemergence, Rate 500 g/ha): 100 | Plant response rating, Cocklebur ([13]; preemergence, Rate 125 g/ha): 0 | Plant response rating, Velvetleaf [14]: 0 | Plant response rating, Morningglory [15]: 0 | Plant response rating, Lambsquarters ([16]; Preemergence, Rate 500 g/ha): 100 | Plant response rating, Lambsquarters ([16]; preemergence, Rate 125 g/ha): 100

CC(C)(C)c1ccn(C2CCN(c3cccc(Br)c3)C2=O)n1 (centres unmarked) [Compound 33]
Plant response rating, Foxtail, Giant [1, 20]: 30 | Plant response rating, Foxtail, Giant [1, 17]: 50 | Plant response rating (0 to 100), Foxtail, Giant ([1]; preemergence): 0 | Plant response rating, Foxtail, Giant [1, 19]: 100 | Plant response rating, Bermudagrass [2, 20]: 100 | Plant response rating, Bermudagrass [2, 17]: 90 | Plant response rating (0 to 100 where 0 is no effect and 100 is complete control), Bermudagrass ([2]; preemergence): 100 | Plant response rating, Bermudagrass [2, 19]: 100 | Plant response rating, Pigweed [3, 20]: 100 | Plant response rating, Pigweed [3, 17]: 0 | Plant response rating (0 to 100), Pigweed ([3]; preemergence): 60 | Plant response rating, Pigweed [3, 19]: 0 | Plant response rating, Crabgrass [4, 20]: 100 | Plant response rating, Crabgrass [4, 17]: 80 | Plant response rating (0 to 100), Crabgrass ([4]; preemergence): 100 | Plant response rating, Crabgrass [4, 19]: 100 | Plant response rating, Surinam grass [5, 20]: 100 | Plant response rating, Surinam grass [5, 17]: 0 | Plant response rating (0 to 100), Surinam grass ([5]; preemergence): 90 | Plant response rating, Surinam grass [5, 19]: 0 | Plant response rating, Soybean (soybean (Glycine max); [20]): 0 | Plant response rating, Soybean (soybean (Glycine max); [17]): 0 | Plant response rating (0 to 100), Soybean (soybean (Glycine max); preemergence): 0 | Plant response rating, Soybean (soybean (Glycine max); [19]): 0 | Plant response rating, Cocklebur [6, 20]: 0 | Plant response rating, Cocklebur [6, 17]: 0 | Plant response rating (0 to 100), Cocklebur ([6]; preemergence): 0 | Plant response rating, Cocklebur [6, 19]: 0 | Plant response rating, Cupgrass, Woolly [7, 20]: 100 | Plant response rating, Cupgrass, Woolly [7, 17]: 20 | Plant response rating (0 to 100), Cupgrass, Woolly ([7]; preemergence): 100 | Plant response rating, Cupgrass, Woolly [7, 19]: 90 | Plant response rating, Kochia (kochia (Kochia scoparia); [20]): 100 | Plant response rating, Kochia (kochia (Kochia scoparia); [17]): 100 | Plant response rating (0 to 100), Kochia (kochia (Kochia scoparia); preemergence): 100 | Plant response rating, Kochia (kochia (Kochia scoparia); [19]): 100 | Plant response rating, Sunflower (Sunflower): 0 | Plant response rating (0 to 100), Nightshade (Nightshade): 0 | Plant response rating, Foxtail, Giant ([8]; Preemergence, Rate 500 g/ha): 80 | Plant response rating, Foxtail, Giant ([8]; preemergence, Rate 125 g/ha): 20 | Plant response rating, Pigweed [9]: 100 | Plant response rating, Corn (corn (Zea mays); Preemergence, Rate 500 g/ha): 0 | Plant response rating, Corn (corn (Zea mays); preemergence, Rate 125 g/ha): 0 | Plant response rating, Crabgrass ([10]; Preemergence, Rate 500 g/ha): 100 | Plant response rating, Crabgrass ([10]; preemergence, Rate 125 g/ha): 0 | Plant response rating, Rice (rice (Oryza saliva)): 0 | Plant response rating, Surinam grass ([11]; Preemergence, Rate 500 g/ha): 60 | Plant response rating, Surinam grass ([11]; preemergence, Rate 125 g/ha): 30 | Plant response rating, Barnyardgrass ([12]; Preemergence, Rate 500 g/ha): 80 | Plant response rating, Barnyardgrass ([12]; preemergence, Rate 125 g/ha): 30 | Plant response rating, Cocklebur ([13]; preemergence, Rate 125 g/ha): 0 | Plant response rating, Velvetleaf [14]: 0 | Plant response rating, Morningglory [15]: 0 | Plant response rating, Lambsquarters ([16]; Preemergence, Rate 500 g/ha): 100 | Plant response rating, Lambsquarters ([16]; preemergence, Rate 125 g/ha): 90
